According to ChEMBL document CHEMBL1137738, “Synthesis of a series of 8-(substituted-phenyl)xanthines and a study on the effects of substitution pattern of phenyl substituents on affinity for adenosine A(1) and A(2A) receptors” (Eur J Med Chem, 2009):

What was measured:
[1] = species on record: Homo sapiens; test: Selectivity ratio of Ki for human cloned adenosine A1 receptor to Ki for human cloned adenosine A2A receptor
[2] = molecular target: T1, Adenosine receptor A1 (Homo sapiens, UniProt P30542); test: biochemical
T1 sequence (P30542 whole entry): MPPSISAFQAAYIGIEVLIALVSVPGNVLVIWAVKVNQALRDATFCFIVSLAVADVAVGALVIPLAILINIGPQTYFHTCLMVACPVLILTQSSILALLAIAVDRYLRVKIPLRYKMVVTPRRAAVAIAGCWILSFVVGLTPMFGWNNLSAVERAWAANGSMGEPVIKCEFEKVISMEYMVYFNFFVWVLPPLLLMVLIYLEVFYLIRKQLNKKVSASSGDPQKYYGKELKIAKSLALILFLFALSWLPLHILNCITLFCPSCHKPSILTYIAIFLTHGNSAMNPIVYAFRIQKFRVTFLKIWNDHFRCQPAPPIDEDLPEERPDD
Description: Displacement of [3H]DPCPX from human cloned adenosine A1 receptor expressed in CHOK1 cells by scintillation counting

[3] = molecular target: Adenosine receptor A2a (Homo sapiens, UniProt P29274); test: biochemical
Sequence of Adenosine receptor A2a (P29274 whole entry): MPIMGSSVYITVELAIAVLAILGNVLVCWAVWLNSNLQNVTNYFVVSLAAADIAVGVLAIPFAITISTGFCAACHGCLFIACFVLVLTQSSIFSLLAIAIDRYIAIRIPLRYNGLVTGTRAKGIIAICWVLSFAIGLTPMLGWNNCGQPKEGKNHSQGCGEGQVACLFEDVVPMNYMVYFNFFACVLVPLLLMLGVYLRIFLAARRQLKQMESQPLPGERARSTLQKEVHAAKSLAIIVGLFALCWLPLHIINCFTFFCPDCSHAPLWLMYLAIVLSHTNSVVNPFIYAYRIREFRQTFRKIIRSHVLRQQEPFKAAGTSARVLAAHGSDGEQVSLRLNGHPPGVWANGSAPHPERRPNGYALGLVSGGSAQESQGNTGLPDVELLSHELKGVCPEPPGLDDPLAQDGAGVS

[4] = Selectivity for adenosine A1 receptor over adenosine A2 receptor

| SMILES | Ratio Ki [1] | Ki [2] [nM] | Ki [3] [nM] | fold change (FC) [4] |
| --- | --- | --- | --- | --- |
| Cn1c(=O)c2[nH]c(-c3cccc(OCCN4CCCC4)c3)nc2n(C)c1=O | – | 1600 | 400 | – |
| CCN(CC)CCOc1cccc(-c2nc3c([nH]2)c(=O)n(C)c(=O)n3C)c1 | 140 | 14000 | 100 | – |
| CCCn1c(=O)c2[nH]c(-c3ccc(OC)cc3O)nc2n(CCC)c1=O | – | – | – | 90 |
| CN(C)CCOc1cccc(-c2nc3c([nH]2)c(=O)n(C)c(=O)n3C)c1 | – | 800 | 400 | – |
| Cn1c(=O)c2[nH]c(-c3cccc(OCCN4CCCCC4)c3)nc2n(C)c1=O | – | 2100 | 800 | – |
| CCN(CC)CCOc1cc(-c2nc3c([nH]2)c(=O)n(C)c(=O)n3C)ccc1OC | 70 | 43000 | 600 | – |

Further lines, results first:

| Ratio Ki [1] | Ki [2] [nM] | Ki [3] [nM] | fold change (FC) [4] | SMILES |
| --- | --- | --- | --- | --- |
| 30 | 13500 | 400 | – | COc1ccc(-c2nc3c([nH]2)c(=O)n(C)c(=O)n3C)cc1OCCN(C)C |
| 100 | > 100000 | 600 | – | COc1cc(-c2nc3c([nH]2)c(=O)n(C)c(=O)n3C)ccc1OCCN(C)C |
| 100 | > 100000 | 1100 | – | CCN(CC)CCOc1ccc(-c2nc3c([nH]2)c(=O)n(C)c(=O)n3C)cc1OC |
| 10 | 11200 | 1000 | – | COc1cc(-c2nc3c([nH]2)c(=O)n(C)c(=O)n3C)ccc1OCCN1CCCC1 |
| 100 | > 100000 | 700 | – | COc1cc(-c2nc3c([nH]2)c(=O)n(C)c(=O)n3C)ccc1OCCN1CCCCC1 |
| – | > 100000 | 100 | – | COc1ccc(-c2nc3c([nH]2)c(=O)n(C)c(=O)n3C)cc1OCCN1CCOCC1 |
| – | 2100 | 1400 | – | Cn1c(=O)c2[nH]c(-c3cccc(OCCN4CCOCC4)c3)nc2n(C)c1=O |
| 38 | > 100000 | 2700 | – | COc1ccc(-c2nc3c([nH]2)c(=O)n(C)c(=O)n3C)cc1OCCN1CCCCC1 |
| – | > 100000 | 100000 | – | COc1cc(-c2nc3c([nH]2)c(=O)n(C)c(=O)n3C)ccc1OCCN1CCOCC1 |
